The values that follow come from patent publication US6342509B1, “Piperidine quaternary salts- CCR- 3 receptor antagonists” (Syntex (U.S.A.) LLC, priority 1998, dated 2002).

Molecules are shown by their SMILES.

Data set [1] addresses T1, CCR-3 receptor (Homo sapiens, UniProt P51677).
T1 construct: host or cells: L1.2 (murine pre-B lymphoma line) CCR-3 transfectant cells
T1 sequence (P51677 1-355): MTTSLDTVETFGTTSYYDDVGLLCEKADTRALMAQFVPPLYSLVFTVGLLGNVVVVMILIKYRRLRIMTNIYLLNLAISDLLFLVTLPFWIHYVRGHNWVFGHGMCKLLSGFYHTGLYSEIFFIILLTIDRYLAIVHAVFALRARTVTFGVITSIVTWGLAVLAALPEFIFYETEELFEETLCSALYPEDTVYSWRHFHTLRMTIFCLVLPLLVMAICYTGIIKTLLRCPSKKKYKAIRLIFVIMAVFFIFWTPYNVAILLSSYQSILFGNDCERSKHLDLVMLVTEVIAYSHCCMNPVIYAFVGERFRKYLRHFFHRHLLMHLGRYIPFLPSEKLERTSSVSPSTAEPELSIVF
The experiment in a line: CCR-3 Receptor Binding Assay in vitro (inhibition of 125I eotaxin binding to CCR-3 L1.2 transfectant cells). Particulars: CCR-3 L1.2 transfected cells, 1 h at room temperature, read-out: IC50 (concentration of test compound required to reduce 125I-eotaxin binding to the CCR-3 L1.2 transfected cells by 50%). As to the method: The CCR-3 antagonistic activity of the compounds of the invention was determined by their ability to inhibit the binding of ^125I eotaxin to CCR-3 L1.2 transfectant cells obtained from leukoSite (Cambridge, Mass.).
The assay was performed in Costar 96-well polypropylene round bottom plates. Test compounds were dissolved in DMSO and then diluted with binding buffer (50 mM HEPES, 1 mM CaCl2, 5 mM MgCl2, 0.5% bovine serum albumin, 0.02% sodium azide, pH 7.24) such that the final DMSO concentration was 2%. 25 μl of the test solution or only buffer with DMSO (control samples) was added to each well, followed by the addition of 25 μl of ^125I-eotaxin ([…]) (NEX314, New England Nuclear, Boston, Mass.) and […] of the CCR-3 L1.2 transfected cells in 25 μl binding buffer. The final reaction volume was 75 μl.
After incubating the reaction mixture for 1 h at room temperature, the reaction was terminated by filtering the reaction mixture through polyethylenimine treated Packard Unifilter GF/C filter plate (Packard, Chicago, Ill.). The filters were washed four times with ice cold wash buffer containing 10 mm HEPES and 0.5M sodium chloride (pH 7.2) and dried at 65° C. for approximately 10 min. 25 μl/well of Microscint-20™ scintillation fluid (Packard) was added and the radioactivity retained on the filters was determined by using the Packard TopCount™.
The IC50 value (concentration of test compound required to reduce ^125I-eotaxin binding to the CCR-3 L 1.2 transfected cells by 50%) for representative compounds of the invention was: […]

Consider `COc1cc(NC(=O)NC(C[N+]2(C)CCC(Cc3ccc(Cl)c(Cl)c3)CC2)C(C)C)cc(OC)c1OC.[Cl-]` (centres unmarked), for which the melting point (commonly the temperature, or range, at which the solid turns liquid) lay within 123.7 to 138 °C.
In turn, `COc1cc(NC(=O)NCC[N+]2(C)CCC(Cc3ccc(Cl)c(Cl)c3)CC2)cc(OC)c1OC.[I-]` (centres unmarked) [Cpd 19, 4-(3,4-dichlorobenzyl)-1-methyl-1-{2-[(3,4,5-trimethoxyphenyl)ureido]ethyl}piperidinium iodide] showed a melting point of 102 to 108 °C.
Take `CC[N+]1(C[C@H](NC(=O)Nc2cc(OC)c(OC)c(OC)c2)C(C)C)CCC(Cc2ccc(Cl)c(Cl)c2)CC1` (some centres unmarked) [Cpd 1, 4-(3,4-Dichlorobenzyl)-1-ethyl-1-{3-methyl-2-[3-(3,4,5-trimethoxyphenyl)-ureido]butyl]piperidinium iodide]: in data set [1], the IC50 was 210 nM.
In the case of `CCc1ccccc1NC(=O)N[C@@H](C[N+]1(CC)CCC(Cc2ccc(Cl)c(Cl)c2)CC1)C(C)(C)C` (some centres unmarked) [Cpd 12], the IC50 in data set [1] was determined as 198 nM.
The same measure, in the same setting: the value for `COc1cc(NC(=O)NC(C[N+]2(C)CCC(Cc3ccc(Cl)c(Cl)c3)CC2)C(C)C)cc(OC)c1OC` (centres unmarked) [Cpd 14, 4-(3,4-dichlorobenzyl)-1-methyl-1-{3-methyl-2-[3-(3,4,5-trimethoxyphenyl)ureido]butyl}piperidinium iodide] was 2320 nM.
